Experimental data as given in paper PMC314469, “Protein Interaction Networks by Proteome Peptide Scanning” (PLoS Biology, 2004).

Test system: Myo5 SH3 domain
Experiment: SPOT analysis of cellulose-bound peptides (WISE), Myo5 SH3 domain (Dataset S4)
Assay type: binding, Saccharomyces cerevisiae
Settings: for The normalized value in BLU units: Myo5 SH3 domain
[1] = SPOT analysis of membrane-bound peptides, normalized value (see methods)
[2] = SPOT analysis of membrane-synthesized peptides probed with Myo5 SH3 domain, normalized value
[3] = SPOT analysis of cellulose-bound 14-mer yeast proteome peptides, normalized value, mean where the peptide was synthesized more than once
[4] = SPOT analysis of cellulose-bound peptides probed with Myo5 SH3 domain, normalized value

## PTVQKFSPHPPTTL
[1]
  The normalized value in BLU units: 213.4 BLU

## PVPVRMQPQPPQPM
[1]
  The normalized value in BLU units: 187.8 BLU

## PVRCRVLPATPRQI
[2]
  The normalized value in BLU units (SPOT analysis, Myo5 SH3): 1474.0 BLU

## PYMYKYLPRFPNLK
[3]
  The normalized value in BLU units: 382.1 BLU

## QASMLRRPSLPHID
[4]
  The normalized value in BLU units (SPOT analysis, Myo5 SH3): 1102.4 BLU

## QATGRRGPAPPPPP
[2]
  The normalized value in BLU units (SPOT analysis, Myo5 SH3): 607.2 BLU

## QEISLIDPSTPDKA
[3]
  The normalized value in BLU units: 155.1 BLU

## QELPMEVPKEPAPA
[4]
  The normalized value in BLU units (SPOT analysis, Myo5 SH3): 138.8 BLU

## QELPRAIPVMPFVD
[1]
  The normalized value in BLU units: 118.1 BLU

## QELRFLVPLVPLLV
[4]
  The normalized value in BLU units (SPOT analysis, Myo5 SH3): 119.1 BLU

## QENPYIIPLPPSST
[4]
  The normalized value in BLU units (SPOT analysis, Myo5 SH3): 240.4 BLU

## QFALKNTPITPGSC
[1]
  The normalized value in BLU units: 111.3 BLU

## QFQKLVPPTLPENV
[3]
  The normalized value in BLU units: 153.9 BLU

## QFSGLLEPSLPNNM
[3]
  The normalized value in BLU units: 84.4 BLU

## QFSPMDDPKSPTPM
[4]
  The normalized value in BLU units (SPOT analysis, Myo5 SH3): 121.0 BLU

## QGSNKYSPSSPLTT
[2]
  The normalized value in BLU units (SPOT analysis, Myo5 SH3): 171.4 BLU

## QHKPKVKPSKPEAK
[2]
  The normalized value in BLU units (SPOT analysis, Myo5 SH3): 956.3 BLU

## QIVNKPLPPLPVAG
[2]
  The normalized value in BLU units (SPOT analysis, Myo5 SH3): 248.9 BLU

## QLIGFGNPKNPFAL
[4]
  The normalized value in BLU units (SPOT analysis, Myo5 SH3): 46.1 BLU

## QLINRFMPHFPSSP
[2]
  The normalized value in BLU units (SPOT analysis, Myo5 SH3): 518.2 BLU

## QLQEKLSPDLPDEE
[1]
  The normalized value in BLU units: 216.1 BLU

## QLRSLFKPFGPILN
[3]
  The normalized value in BLU units: 369.9 BLU

## QLVTLISPYDPNFK
[3]
  The normalized value in BLU units: 177.5 BLU

## QNGLRFNPDVPKLW
[2]
  The normalized value in BLU units (SPOT analysis, Myo5 SH3): 260.1 BLU

## QPAQFMPPQDPAAA
[3]
  The normalized value in BLU units: 133.5 BLU

## QPAQLQEPQEPLST
[4]
  The normalized value in BLU units (SPOT analysis, Myo5 SH3): 125.9 BLU

## QPPDRNLPSHPSSN
[2]
  The normalized value in BLU units (SPOT analysis, Myo5 SH3): 155.8 BLU

## QPQAYHLPGNPYST
[4]
  The normalized value in BLU units (SPOT analysis, Myo5 SH3): 187.4 BLU

## QPQHLPPPPPPRAQ
[3]
  The normalized value in BLU units: 76158.3 BLU

## QPTNFQYPPPPFGQ
[4]
  The normalized value in BLU units (SPOT analysis, Myo5 SH3): 224.1 BLU

## QRLDRDKPHEPNGY
[2]
  The normalized value in BLU units (SPOT analysis, Myo5 SH3): 217.9 BLU

## QSEEKEKPKGPMAV
[1]
  The normalized value in BLU units: 197.3 BLU

## QSINRSIPSAPYGA
[1]
  The normalized value in BLU units: 208.2 BLU

## QSKTKPLPVEPASP
[1]
  The normalized value in BLU units: 122.1 BLU

## QTGSKTVPQAPQAP
[2]
  The normalized value in BLU units (SPOT analysis, Myo5 SH3): 62.9 BLU

## QTVIKTHPRIPKSE
[2]
  The normalized value in BLU units (SPOT analysis, Myo5 SH3): 186.2 BLU

## QVYEKTIPLFPPEI
[2]
  The normalized value in BLU units (SPOT analysis, Myo5 SH3): 153.0 BLU

## QWSKRIMPYIPGPV
[2]
  The normalized value in BLU units (SPOT analysis, Myo5 SH3): 295.5 BLU

## RAAGMDVPIIPGIM
[3]
  The normalized value in BLU units: 98.2 BLU

## RAGNREPPSTPSTL
[1]
  The normalized value in BLU units: 273.8 BLU

## RDDVKRTPFIPESV
[1]
  The normalized value in BLU units: 171.1 BLU

## REASLDIPYKPIIA
[3]
  The normalized value in BLU units: 176.1 BLU

## REDAHEDPVSPKAG
[3]
  The normalized value in BLU units: 144.8 BLU

## REFEFIIPVFPVIC
[4]
  The normalized value in BLU units (SPOT analysis, Myo5 SH3): 163.2 BLU

## REGPKSCPRGPLCP
[1]
  The normalized value in BLU units: 188.5 BLU

## RERPLEPPRKPMAS
[3]
  The normalized value in BLU units: 967.3 BLU

## REVDLPIPAQPGPP
[4]
  The normalized value in BLU units (SPOT analysis, Myo5 SH3): 114.0 BLU

## REYIKSLPMYPAAP
[2]
  The normalized value in BLU units (SPOT analysis, Myo5 SH3): 70.4 BLU

## RFHVFCEPILPSVA
[3]
  The normalized value in BLU units: 158.0 BLU

## RFSSRRAPIAPSGK
[3]
  The normalized value in BLU units: 564.4 BLU

## RFWTRARPIDPNAY
[2]
  The normalized value in BLU units (SPOT analysis, Myo5 SH3): 279.1 BLU

## RGWQRFLPTGPIAH
[2]
  The normalized value in BLU units (SPOT analysis, Myo5 SH3): 802.1 BLU

## RHSKKPAPPPPGMQ
[2]
  The normalized value in BLU units (SPOT analysis, Myo5 SH3): 1938.6 BLU

## RIRDKSKPSSPTAT
[2]
  The normalized value in BLU units (SPOT analysis, Myo5 SH3): 546.8 BLU

## RKSDKNAPSVPQVD
[1]
  The normalized value in BLU units: 394.6 BLU

## RLFDLVKPKNPKFS
[3]
  The normalized value in BLU units: 441.1 BLU

## RLIKRLKPPAPKEP
[2]
  The normalized value in BLU units (SPOT analysis, Myo5 SH3): 403.1 BLU

## RLLALFIPALPFII
[3]
  The normalized value in BLU units: 264.8 BLU

## RLLFRSLPPHPACL
[1]
  The normalized value in BLU units: 745.7 BLU

## RLLSKYRPSCPIIL
[2]
  The normalized value in BLU units (SPOT analysis, Myo5 SH3): 336.6 BLU

## RLNSFAPPPNPYAT
[3]
  The normalized value in BLU units: 273.6 BLU

## RLPSKTDPLDPHIK
[1]
  The normalized value in BLU units: 129.4 BLU

## RLQKLDDPKSPYQC
[3]
  The normalized value in BLU units: 127.2 BLU

## RLSLLRSPKAPDAH
[3]
  The normalized value in BLU units: 442.3 BLU

## RLTNFEVPSLPTFH
[4]
  The normalized value in BLU units (SPOT analysis, Myo5 SH3): 319.1 BLU

## RLVNKLLPPHPFAD
[2]
  The normalized value in BLU units (SPOT analysis, Myo5 SH3): 289.2 BLU

## RLVSKYRPNCPIIL
[1]
  The normalized value in BLU units: 286.2 BLU

## RLWLYAAPKRPKTF
[4]
  The normalized value in BLU units (SPOT analysis, Myo5 SH3): 845.1 BLU

## RMQQKNSPAFPTHS
[1]
  The normalized value in BLU units: 1283.9 BLU

## RPKRRAPPPVPKKP
[2]
  The normalized value in BLU units (SPOT analysis, Myo5 SH3): 67429.7 BLU

## RPPSHSAPYIPRSS
[3]
  The normalized value in BLU units: 47448.0 BLU

## RPQWLSYPEQPLNS
[4]
  The normalized value in BLU units (SPOT analysis, Myo5 SH3): 241.0 BLU

## RPSKFFHPPIPHIP
[4]
  The normalized value in BLU units (SPOT analysis, Myo5 SH3): 776.9 BLU

## RPVYRLKPNAPFQY
[2]
  The normalized value in BLU units (SPOT analysis, Myo5 SH3): 209.8 BLU

## RRHNRQHPPYPHSG
[1]
  The normalized value in BLU units: 1287.6 BLU

## RRIRKEHPGEPNVI
[1]
  The normalized value in BLU units: 308.3 BLU

## RRKLRTVPGVPLIH
[2]
  The normalized value in BLU units (SPOT analysis, Myo5 SH3): 2011.1 BLU

## RRLKKNLPSLPTPV
[3]
  The normalized value in BLU units: 823.8 BLU

## RRRTRLRPPTPLSQ
[1]
  The normalized value in BLU units: 1508.6 BLU

## RSRSKKDPGIPSNF
[2]
  The normalized value in BLU units (SPOT analysis, Myo5 SH3): 800.0 BLU

## RTFFKLPPNLPEAE
[1]
  The normalized value in BLU units: 2608.2 BLU

## RTPSKPDPMEPENT
[1]
  The normalized value in BLU units: 186.9 BLU

## RYCFKLLPPQPGSK
[1]
  The normalized value in BLU units: 189.7 BLU

## RYPFRMIPELPPKR
[2]
  The normalized value in BLU units (SPOT analysis, Myo5 SH3): 3574.9 BLU

## SAENLIQPTAPIRD
[3]
  The normalized value in BLU units: 56.4 BLU

## SAFPYVFPLPPWIP
[3]
  The normalized value in BLU units: 12966.5 BLU

## SANGKFIPSRPAPK
[1]
  The normalized value in BLU units: 6758.2 BLU

## SANNYPFPQQPNGM
[3]
  The normalized value in BLU units: 79.6 BLU

## SASTMAAPVHPQQQ
[3]
  The normalized value in BLU units: 164.3 BLU

## SATGWLKPAVPIQW
[4]
  The normalized value in BLU units (SPOT analysis, Myo5 SH3): 94.6 BLU

## SAYYLGLPVTPEDM
[4]
  The normalized value in BLU units (SPOT analysis, Myo5 SH3): 215.1 BLU

## SDNSKSEPLPPVIT
[2]
  The normalized value in BLU units (SPOT analysis, Myo5 SH3): 130.5 BLU

## SEAKRKFPEAPEVP
[3]
  The normalized value in BLU units: 392.6 BLU

## SELTFIAPTQPVST
[4]
  The normalized value in BLU units (SPOT analysis, Myo5 SH3): 110.5 BLU

## SELYYEGPETPTPS
[3]
  The normalized value in BLU units: 50.5 BLU

## SEMHRAAPETPRSI
[2]
  The normalized value in BLU units (SPOT analysis, Myo5 SH3): 322.4 BLU

## SENGRLTPGLPRSY
[3]
  The normalized value in BLU units: 169.8 BLU

## SENRLRTPLKPLVN
[4]
  The normalized value in BLU units (SPOT analysis, Myo5 SH3): 272.3 BLU

## SENYLVKPTIPGTT
[4]
  The normalized value in BLU units (SPOT analysis, Myo5 SH3): 61.5 BLU

## SERRKALPKEPKKL
[2]
  The normalized value in BLU units (SPOT analysis, Myo5 SH3): 200.0 BLU

## SETARKVPPIPTQI
[1]
  The normalized value in BLU units: 420.1 BLU

## SETSHHSPSAPFQR
[4]
  The normalized value in BLU units (SPOT analysis, Myo5 SH3): 257.2 BLU

## SFDYLFHPFVPCTI
[4]
  The normalized value in BLU units (SPOT analysis, Myo5 SH3): 23.1 BLU

## SFIRKRAPTPPAPS
[2]
  The normalized value in BLU units (SPOT analysis, Myo5 SH3): 878.2 BLU

## SFRELWQPVDPSRE
[3]
  The normalized value in BLU units: 97.3 BLU
